# In the NIST ThermoML archive (doi:10.1016/j.jct.2004.09.022):
# ± gives the expanded uncertainty stated by the source.
# Tests used:
# [1] = refractive index (Na D-line) (dimensionless); conditions: 293.15 K; 101.33 kPa; Liquid; Standard Abbe refractometry
# [2] = Liquid; for mass density: 293.15 K, 101.33 kPa
refractive index [1],mass density ([2]; Vibrating tube method),Normal boiling temperature ([2]; Fisher boiling point apparatus),mass density [2],Normal boiling temperature [2],SMILES
1.4075 ± 0.0008,808.4 ± 2.2 kg/m3,131.40 ± 0.2 °C,,,CC(C)CCO [3-methylbutan-1-ol]
1.3324 ± 0.0008,,,999.9 ± 0.6 kg/m3,100.1 ± 0.2 °C,O [water]
